Test results published in patent US20260042764A1, “COMPOSITIONS AND METHODS FOR INHIBITION OF KRAS” (TheRas, Inc., priority 2022, published 2026).

How the values were obtained:
SW620 cells (KRAS G12V) = experiment: Cell-based pERK HTRF assay in SW620 cell (Biological Example 4)
Summary of the method: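 SW620 (KRAS G12V) cells seeded at 3×10^4/well in RPMI, 10% FBS, then treated next day for 4 h with a 9-point half-log series from 1 μM top (0.25% DMSO). Lysates analyzed for pERK by HTRF (Eu cryptate/d2 antibodies, 4–24 h at room temperature), excitation 320 nm, emission 615 nm.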

[1] = molecular target: T1, Avi-KRAS G12D (2-169) GTP/RAF1 RBD-3xFLAG (51-131) (Homo sapiens, UniProt P01116, G12D); experiment: Raf1-KRAS G12D-GTP disruption HTRF assay (Biological Example 3); assay type: binding; conditions: KRAS G12D, GTP-loaded
T1 construct: Avi-KRAS G12D (2-169)
Experimental: (§1) Biological Example 3: Disrupting RAS-Effector Binding HTRF Assay
(§2) A protein:protein interaction (PPI) Homogeneous Time Resolved Fluorescence (HTRF) assay was used to determine the effectiveness of compounds in disrupting KRAS protein and effector (RAF1) binding.
(§3) The HTRF assay used the following reagents and proteins: (i) 50 nM Avi-KRAS G12D (2-169) GTP/RAF1 RBD-3xFLAG (51-131): (ii) 50 nM Avi-KRAS G12C (2-169) GTP/RAF1 RBD-3xFLAG (51-131): (iii) 50 nM Avi-KRAS G12V (2-169) GTP/RAF1 RBD-3xFLAG (51-131); (iv) 50 nM Avi-KRAS WT (2-169) GTP/RAF1 RBD-3xFLAG (51-131); and (v) 75 nM 3xFLAG-RAF1 RBD (51-131)-Avi. The assay buffer included: 50 mM Tris pH 7.5 (Invitrogen, 15567-027), 100 mM NaCl (Sigma, S5150-IL), 5 mM MgCl2 (Sigma, 63069), 0.1% BSA (Sigma, A7030), 0.01% Tween 20 (Sigma, P7949), 10% DMSO (Cell Signaling, 12611). The bead buffer included: 50 mM Tris pH 7.5 (Invitrogen, 15567-027), 0.01% Tween 20 (Sigma, P7949). An assay volume of 20 μL was used in a 384 well plate-low volume format. Compound titration: 30-0.005 μM, 3x dilution series.
(§4) The HTRF assay employed the following protocol:
(§5) Compounds were dispensed in assay plate (384-well, Grenier Bio-One #784075) using Echo (model 555) with dose response settings: 200 nL final volume, titration from 30 μM as a 10-point dilution series. Proteins and HTRF reagents were mixed and dispensed onto plates, 20 μL per well, and then incubated for 1 h at room temperature, with 700 rpm shaking.
(§6) Plates were analyzed on an Envision plate reader using the following setting: Excitation 320 nm, Bandwidth 75 nm; Emission 615 nm, Bandwidth 85 nm; Gain 100%; Flashes 100; Lag 60 μs. Data was reported as percentage of activity, with DMSO as 100%. Data was plotted and analyzed using Prism 8.
(§7) The biochemical Raf1-KRAS G12D/G12V/G12C/WT-GTP disruption assay IC50 of selected compounds described herein are shown in Table 12.

[2] = molecular target: T2, Avi-KRAS G12C (2-169) GTP/RAF1 RBD-3xFLAG (51-131) (Homo sapiens, UniProt P01116, G12C); experiment: Raf1-KRAS G12C-GTP disruption HTRF assay (Biological Example 3); assay type: binding; conditions: KRAS G12C, GTP-loaded
T2 construct: Avi-KRAS G12C (2-169)
Experimental: as §1, §2, §3, §4, §5, §6, §7

[3] = molecular target: T3, Avi-KRAS G12V (2-169) GTP/RAF1 RBD-3xFLAG (51-131) (Homo sapiens, UniProt P01116, G12V); experiment: Raf1-KRAS G12V-GTP disruption HTRF assay (Biological Example 3); assay type: binding; conditions: KRAS G12V, GTP-loaded
T3 construct: Avi-KRAS G12V (2-169)
Experimental: as §1, §2, §3, §4, §5, §6, §7

GP2d cells (KRAS G12D) = experiment: Cell-based pERK HTRF assay in GP2d cell (Biological Example 2); conditions: GP2d (KRAS G12D) cells
Summary of the method: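 60 min compound, 0.25% DMSO, 9-pt half-log curve from 1 μM or 100 nM; DMEM/10% FBS.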

[4] = molecular target: T4, Avi-KRAS WT (2-169) GTP/RAF1 RBD-3xFLAG (51-131) (Homo sapiens, UniProt P01116); experiment: Raf1-KRAS WT-GTP disruption HTRF assay (Biological Example 3); assay type: binding; conditions: KRAS WT, GTP-loaded
T4 construct: Avi-KRAS WT (2-169)
Experimental: as §1, §2, §3, §4, §5, §6, §7

[5] = Homo sapiens, SW-620, SW620 (KRAS G12V) cells

T3 sequence (P01116 2-169 isoform P01116-2 G12V): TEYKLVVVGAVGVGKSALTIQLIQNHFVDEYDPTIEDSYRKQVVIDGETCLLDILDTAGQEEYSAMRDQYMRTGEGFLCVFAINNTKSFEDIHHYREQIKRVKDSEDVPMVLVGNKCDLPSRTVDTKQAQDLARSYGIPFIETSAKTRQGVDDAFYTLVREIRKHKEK
T1 sequence (P01116 2-169 isoform P01116-2 G12D): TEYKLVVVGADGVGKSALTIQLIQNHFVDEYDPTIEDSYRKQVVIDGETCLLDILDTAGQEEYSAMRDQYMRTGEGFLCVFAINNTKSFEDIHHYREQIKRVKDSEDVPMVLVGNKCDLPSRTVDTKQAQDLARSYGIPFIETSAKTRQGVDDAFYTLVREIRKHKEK
T4 sequence (P01116 2-169 isoform P01116-2): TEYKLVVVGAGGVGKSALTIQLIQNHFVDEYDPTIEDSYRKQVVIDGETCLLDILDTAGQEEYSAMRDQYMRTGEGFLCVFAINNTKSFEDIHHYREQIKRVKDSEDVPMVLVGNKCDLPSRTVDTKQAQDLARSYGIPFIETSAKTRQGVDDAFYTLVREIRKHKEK
T2 sequence (P01116 2-169 isoform P01116-2 G12C): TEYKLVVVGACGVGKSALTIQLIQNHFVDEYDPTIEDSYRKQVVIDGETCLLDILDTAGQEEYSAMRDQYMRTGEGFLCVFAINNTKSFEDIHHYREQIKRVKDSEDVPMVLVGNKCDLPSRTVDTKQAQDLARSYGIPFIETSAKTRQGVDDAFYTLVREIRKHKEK

SMILES | IC50 (SW620 cells (KRAS G12V); [5]) | IC50 [1] | IC50 [2] | IC50 [3] | IC50 (GP2d cells (KRAS G12D); GP2d) | IC50 [4] | IC50 (SW620 cells (KRAS G12V); SW620 (KRAS G12V) cells) | IC50 (GP2d cells (KRAS G12D))
CCN(c1nc(OC[C@@]23CCCN2C[C@H](F)C3)nc2c(F)c(-c3ccc(F)c4sc(N)c(C#N)c34)c(C(F)(F)F)cc12)[C@H]1CC[C@](C)(C(=O)N(C)C)C1 (atropisomer, axis not shown) [Compound 894] | < 100 nM | 1000 to 10000 nM | 1000 to 10000 nM | 1000 to 10000 nM | < 100 nM | 1000 to 10000 nM |  | 
CN(Cc1cncnc1)c1nc(OC[C@@]23CCCN2C[C@H](F)C3)nc2c(F)c(-c3ccc(F)c4sc(N)c(C#N)c34)c(C(F)(F)F)cc12 (atropisomer, axis not shown) [Compound 898] | < 100 nM | 100 to 1000 nM | 1000 to 10000 nM | 100 to 1000 nM | < 100 nM | 1000 to 10000 nM |  | 
CN(c1nc(OC[C@@]23CCCN2C[C@H](F)C3)nc2c(F)c(-c3ccc(F)c4sc(N)c(C#N)c34)c(C(F)(F)F)cc12)[C@H]1CC(=O)N2CCC[C@H]12 (atropisomer, axis not shown) [Compound 934] | < 100 nM | 100 to 1000 nM | 100 to 1000 nM | 100 to 1000 nM | < 100 nM | 100 to 1000 nM |  | 
C[C@@H](c1cccnc1)N(C)c1nc(OC[C@@]23CCCN2C[C@H](F)C3)nc2c(F)c(-c3ccc(F)c4sc(N)c(C#N)c34)c(C(F)(F)F)cc12 [Compound 969] | < 100 nM | 1000 to 10000 nM | 1000 to 10000 nM | 1000 to 10000 nM | < 100 nM | 1000 to 10000 nM |  | 
CCN(c1nc(OC[C@@]23CCCN2C[C@H](F)C3)nc2c(F)c(-c3ccc(F)c4sc(N)c(C#N)c34)c(C(F)(F)F)cc12)[C@H]1CCN(C(=O)c2ccc(C)s2)C1 (atropisomer, axis not shown) [Compound 911] | < 100 nM | 100 to 1000 nM | 100 to 1000 nM | 100 to 1000 nM | < 100 nM | 1000 to 10000 nM |  | 
CCN(c1nc(OC[C@@]23CCCN2C[C@H](F)C3)nc2c(F)c(-c3ccc(F)c4sc(N)c(C#N)c34)c(C(F)(F)F)cc12)[C@H]1C[C@H](C)N(C(=O)[C@@H]2CCO2)C1 (atropisomer, axis not shown) [Compound 922] | < 100 nM | ≤ 100 nM | ≤ 100 nM | ≤ 100 nM | < 100 nM | 100 to 1000 nM |  | 
CN(Cc1cccc(=O)n1C)c1nc(OC[C@@]23CCCN2C[C@H](F)C3)nc2c(F)c(-c3ccc(F)c4sc(N)c(C#N)c34)c(C(F)(F)F)cc12 (atropisomer, axis not shown) [Compound 879] | < 100 nM | 1000 to 10000 nM | > 10000 nM | > 10000 nM | < 100 nM | > 10000 nM |  | 
CCN(c1nc(OC[C@@]23CCCN2C[C@H](F)C3)nc2c(F)c(-c3ccc(F)c4sc(N)c(C#N)c34)c(C(F)(F)F)cc12)[C@H]1C[C@@H](C(=O)N(C)C)C1 (atropisomer, axis not shown) [Compound 957] |  | 100 to 1000 nM | 1000 to 10000 nM | 1000 to 10000 nM |  | 1000 to 10000 nM | < 100 nM | < 100 nM
CCN(c1nc(OCC23CCCN2CC(F)C3)nc2c(F)c(-c3ccc(F)c4sc(N)c(C#N)c34)c(C(F)(F)F)cc12)C1CCN(C(=O)c2ccc(Cl)s2)C1 (stereo not drawn) [Compound 929] |  | 100 to 1000 nM | 100 to 1000 nM | 100 to 1000 nM |  | 100 to 1000 nM | < 100 nM | < 100 nM
CCN(c1nc(OC[C@@]23CCCN2C[C@H](F)C3)nc2c(F)c(-c3ccc(F)c4sc(N)c(C#N)c34)c(C(F)(F)F)cc12)[C@H]1CCN(C(=O)N2CC(F)(F)C2)C1 (atropisomer, axis not shown) [Compound 831] | < 100 nM | 100 to 1000 nM | 100 to 1000 nM | 100 to 1000 nM | < 100 nM | 100 to 1000 nM |  | 

Further lines, results first:

IC50 (SW620 cells (KRAS G12V); [5]) | IC50 [1] | IC50 [2] | IC50 [3] | IC50 (GP2d cells (KRAS G12D); GP2d) | IC50 [4] | IC50 (SW620 cells (KRAS G12V); SW620 (KRAS G12V) cells) | IC50 (GP2d cells (KRAS G12D)) | SMILES
< 100 nM | 100 to 1000 nM | 100 to 1000 nM | 100 to 1000 nM | < 100 nM | 1000 to 10000 nM |  |  | CCN(c1nc(OC[C@@]23CCCN2C[C@H](F)C3)nc2c(F)c(-c3ccc(F)c4sc(N)c(C#N)c34)c(C(F)(F)F)cc12)[C@H]1C[C@@H](C)N(C(=O)OC2CC(OC)C2)C1 (stereo partly drawn) [Compound 895]
 | 100 to 1000 nM | 100 to 1000 nM | 100 to 1000 nM |  | 100 to 1000 nM | < 100 nM | < 100 nM | CCN(c1nc(OC[C@@]23CCCN2C[C@H](F)C3)nc2c(F)c(-c3ccc(F)c4sc(N)c(C#N)c34)c(C(F)(F)F)cc12)C1C[C@H](C)N(C(=O)C2CC2)C1 (stereo partly drawn) [Compound 909]
< 100 nM | 100 to 1000 nM | 100 to 1000 nM | 100 to 1000 nM | < 100 nM | 100 to 1000 nM |  |  | CCN(c1nc(OC[C@@]23CCCN2C[C@H](F)C3)nc2c(F)c(-c3ccc(F)c4sc(N)c(C#N)c34)c(C(F)(F)F)cc12)[C@H]1C[C@H](COC)N(C(=O)[C@@H]2C[C@H]2F)C1 (atropisomer, axis not shown) [Compound 848]
100 to 1000 nM | > 10000 nM | > 10000 nM | > 10000 nM | 100 to 1000 nM | > 10000 nM |  |  | N#Cc1c(N)sc2c(F)ccc(-c3c(C(F)(F)F)cc4c(N5CCCC(c6cccnc6)C5)nc(OC[C@@]56CCCN5C[C@H](F)C6)nc4c3F)c12 (stereo partly drawn) [Compound 944]
< 100 nM | 100 to 1000 nM | 1000 to 10000 nM | 1000 to 10000 nM | < 100 nM | 100 to 1000 nM |  |  | CCN(c1nc(OC[C@@]23CCCN2C[C@H](F)C3)nc2c(F)c(-c3ccc(F)c4sc(N)c(C#N)c34)c(C(F)(F)F)cc12)[C@@H]1CCCN(C)C1=O (atropisomer, axis not shown) [Compound 968]
< 100 nM | 100 to 1000 nM | 1000 to 10000 nM | 1000 to 10000 nM | < 100 nM | 1000 to 10000 nM |  |  | CN(Cc1ccccn1)c1nc(OC[C@@]23CCCN2C[C@H](F)C3)nc2c(F)c(-c3ccc(F)c4sc(N)c(C#N)c34)c(C(F)(F)F)cc12 (atropisomer, axis not shown) [Compound 865]
< 100 nM | 100 to 1000 nM | 100 to 1000 nM | 100 to 1000 nM | < 100 nM | 100 to 1000 nM |  |  | CCN(c1nc(OC[C@@]23CCCN2C[C@H](F)C3)nc2c(F)c(-c3ccc(F)c4sc(N)c(C#N)c34)c(C(F)(F)F)cc12)[C@@H]1CO[C@H]2OCC[C@H]21 (atropisomer, axis not shown) [Compound 966]
< 100 nM | 100 to 1000 nM | 100 to 1000 nM | 100 to 1000 nM | < 100 nM | 1000 to 10000 nM |  |  | N#Cc1c(N)sc2c(F)ccc(-c3c(C(F)(F)F)cc4c(N(CCF)[C@H]5CCN(C(=O)[C@@H]6CC6(F)F)C5)nc(OC[C@@]56CCCN5C[C@H](F)C6)nc4c3F)c12 (atropisomer, axis not shown) [Compound 843]
< 100 nM | 100 to 1000 nM | 100 to 1000 nM | 100 to 1000 nM | < 100 nM | 100 to 1000 nM |  |  | CCN(c1nc(OC[C@@]23CCCN2C[C@H](F)C3)nc2c(F)c(-c3ccc(F)c4sc(N)c(C#N)c34)c(C(F)(F)F)cc12)[C@H]1CCN(C(=O)C2CC(OC)C2)C1 (stereo partly drawn) [Compound 844]
